Measured values published in ChEMBL document CHEMBL1129023, “Nucleosides and nucleotides. 150. Enzymatic synthesis of 5-phosphatidyl derivatives of (CNDAC) and their notable antitumor effects in mice1” (1996).

How the values were obtained:
Type in all cases: functional
Mus musculus [1] = assay: Compound was evaluated for the body weight change from day 1 to day 12 against M5076 sarcoma in mice at a sc dose of 300 mg/kg/day: toxic; settings: route subcutaneous
Mus musculus [2] = assay: Compound was evaluated for the percent increase in life span against M5076 sarcoma in mice at a sc dose of 300 mg/kg/day.; settings: route subcutaneous
Mus musculus [3] = assay: Compound was evaluated for the percent increase in life span against M5076 sarcoma in mice at a sc dose of 200 mg/kg/day.; settings: route subcutaneous
Mus musculus [4] = assay: Compound was evaluated for the body weight change from day 1 to day 12 against M5076 sarcoma in mice at a sc dose of 100 mg/kg/day.; settings: route subcutaneous
Mus musculus [5] = assay: Compound was evaluated for the body weight change from day 1 to day 12 against M5076 sarcoma in mice at a sc dose of 200 mg/kg/day.; settings: route subcutaneous
Mus musculus [6] = assay: Compound was evaluated for the percent increase in life span against M5076 sarcoma in mice at a sc dose of 100 mg/kg/day.; settings: route subcutaneous
Mus musculus [7] = assay: Compound was evaluated for the tumor growth inhibition on day 21 against M5076 sarcoma implanted sc in mice at a dose of 100 mg/kg/day.; settings: 504 h, route subcutaneous, read-out: TGI
Mus musculus [8] = assay: Compound was evaluated for the tumor growth inhibition on day 21 against M5076 sarcoma implanted sc in mice at a dose of 200 mg/kg/day.; settings: 504 h, route subcutaneous, read-out: TGI
Mus musculus [9] = assay: Compound was evaluated for the tumor growth inhibition on day 21 against M5076 sarcoma implanted sc in mice at a dose of 300 mg/kg/day.; settings: 504 h, route subcutaneous, read-out: TGI
Mus musculus [10] = assay: Compound was evaluated for the body weight change from day 1 to day 12 against M5076 sarcoma in mice at a sc dose of 300 mg/kg/day.; settings: route subcutaneous
Mus musculus [11] = assay: Compound was evaluated for the tumor growth inhibition on day 21 against M5076 sarcoma implanted sc in mice at a dose of 25 mg/kg/day.; settings: 504 h, route subcutaneous, read-out: TGI
Mus musculus [12] = assay: Compound was evaluated for the percent increase in life span against M5076 sarcoma in mice at a sc dose of 25 mg/kg/day.; settings: route subcutaneous
Mus musculus [13] = assay: Compound was evaluated for the body weight change from day 1 to day 12 against M5076 sarcoma in mice at a sc dose of 50 mg/kg/day.; settings: route subcutaneous
Mus musculus [14] = assay: Compound was evaluated for the percent increase in life span against M5076 sarcoma in mice at a sc dose of 50 mg/kg/day.; settings: route subcutaneous
Mus musculus [15] = assay: Compound was evaluated for the body weight change from day 1 to day 12 against M5076 sarcoma in mice at a sc dose of 25 mg/kg/day.; settings: route subcutaneous
Mus musculus [16] = assay: Compound was evaluated for the tumor growth inhibition on day 21 against M5076 sarcoma implanted sc in mice at a dose of 50 mg/kg/day.; settings: 504 h, route subcutaneous, read-out: TGI

SMILES	Weight change (Mus musculus [1])	ILS at 300 mg/kg/day (Mus musculus [2])	ILS at 200 mg/kg/day (Mus musculus [3])	Weight change (Mus musculus [4])	Weight change (Mus musculus [5])	ILS at 100 mg/kg/day (Mus musculus [6])	inhibition in vivo at 100 mg/kg/day (Mus musculus [7])	inhibition in vivo at 200 mg/kg/day (Mus musculus [8])	inhibition in vivo at 300 mg/kg/day (Mus musculus [9])	Weight change (Mus musculus [10])	inhibition in vivo at 25 mg/kg/day (Mus musculus [11])	ILS at 25 mg/kg/day (Mus musculus [12])	Weight change (Mus musculus [13])	ILS at 50 mg/kg/day (Mus musculus [14])	Weight change (Mus musculus [15])	inhibition in vivo at 50 mg/kg/day (Mus musculus [16])
CCCCCCCCCCCCCC(=O)OCC(COP(=O)([O-])OC[C@H]1O[C@@H](n2ccc(N)nc2=O)[C@@H](C#N)[C@@H]1O)OC(=O)CCCCCCCCCCCCC.[Na+] (stereo not given in full)	1 g	0%	22%	0.8 g	0.3 g	4%	80%	97%								
CCCCCCCCCCCCCCCC(=O)OCC(COP(=O)([O-])OC[C@H]1O[C@@H](n2ccc(N)nc2=O)[C@@H](C#N)[C@@H]1O)OC(=O)CCCCCCCCCCCCCCC.[Na+] (stereo not given in full)		40%	38%	0.9 g	0 g	21%	93%	98%	100%	1 g						
CCCCCCCC/C=C\CCCCCCCC(=O)OCC(COP(=O)([O-])OC[C@H]1O[C@@H](n2ccc(N)nc2=O)[C@@H](C#N)[C@@H]1O)OC(=O)CCCCCCC/C=C\CCCCCCCC.[Na+] (stereo not given in full)		-58%	-12%	0.6 g	2 g	13%	98%			3 g	69%	-3%	0.8 g	7%	1.6 g	92%
CCCCC/C=C\C/C=C\CCCCCCCC(=O)OCC(COP(=O)([O-])OC[C@H]1O[C@@H](n2ccc(N)nc2=O)[C@@H](C#N)[C@@H]1O)OC(=O)CCCCCCC/C=C\C/C=C\CCCCC.[Na+] (stereo not given in full)		15%	10%	-0.3 g	1 g	15%	93%			1 g						
CCCCCCCCCCCCCCCCCC(=O)OCC(COP(=O)([O-])OC[C@H]1O[C@@H](n2ccc(N)nc2=O)[C@@H](C#N)[C@@H]1O)OC(=O)CCCCCCCCCCCCCCCCC.[Na+] (stereo not given in full)		60%	49%	1.2 g	-0.2 g	20%	88%	97%	98%	-0.3 g						
N#C[C@H]1[C@H](O)[C@@H](CO)O[C@H]1n1ccc(N)nc1=O [TAS-109]		14%	-7%	1.1 g	1.2 g	-11%	38%	47%	67%	1 g						
